Measurements published in paper PMC6321071, “Chenodeoxycholic Acid from Bile Inhibits Influenza A Virus Replication via Blocking Nuclear Export of Viral Ribonucleoprotein Complexes” (Molecules, 2018).
Structures can show the parent of a compound that is named as a salt. Where two headings read alike, the source gives them in different places.

Key:
H5N1 [1] = assay: microbe, parasite or virus in culture; assay type: cell-based, Influenza A virus A/Duck/Guangdong/99 (H5N1); conditions: Influenza A virus, H5N1, A549, read-out: IC50 (H5N1)
H9N2 [2] = assay: microbe, parasite or virus in culture; assay type: cell-based, Influenza A virus A/Chicken/Guangdong/96 (H9N2); conditions: Influenza A virus, H9N2, A549, read-out: IC50 (H9N2)
PR8 (H1N1) [3] = assay: microbe, parasite or virus in culture; assay type: cell-based, Influenza A virus A/Puerto Rico/8/34 (PR8); conditions: Influenza A virus, A549, read-out: IC50 (PR8 (H1N1))
H5N1 [4] = assay: microbe, parasite or virus in culture; assay type: cell-based, Influenza A virus A/Duck/Guangdong/99 (H5N1); conditions: Influenza A virus, H5N1, MDCK, read-out: IC50 (H5N1)
H9N2 [5] = assay: microbe, parasite or virus in culture; assay type: cell-based, Influenza A virus A/Chicken/Guangdong/96 (H9N2); conditions: Influenza A virus, H9N2, MDCK, read-out: IC50 (H9N2)
PR8 (H1N1) [6] = assay: microbe, parasite or virus in culture; assay type: cell-based, Influenza A virus A/Puerto Rico/8/34 (PR8); conditions: Influenza A virus, MDCK, read-out: IC50 (PR8 (H1N1))
[7] = test system: influenza A virus (H5N1, H9N2, H1N1); assay: microbe, parasite or virus in culture; assay type: cell-based; conditions: for IC50: Influenza A virus, read-out: IC50 range over three IAV subtypes
H5N1 virus = assay type: cell-based, Influenza A virus A/Duck/Guangdong/99 (H5N1)
PR8 (H1N1) [8] = assay type: cell-based, Influenza A virus A/Puerto Rico/8/34 (PR8)
H9N2 virus = assay type: cell-based, Influenza A virus A/Chicken/Guangdong/96 (H9N2)
H5N1 [9] = assay type: cell-based, Influenza A virus A/Duck/Guangdong/99 (H5N1); conditions: 60 μM
H5N1 [10] = assay type: cell-based, Influenza A virus A/Duck/Guangdong/99 (H5N1)
[11] = test system: nuclear export of viral RNP complexes (H5N1); assay type: cell-based, Influenza A virus A/Duck/Guangdong/99 (H5N1)
[12] = MTT cytotoxicity assay on A549 cells; conditions: human
A549 cells = assay: MTT cytotoxicity assay on A549 cells; conditions: 48 or 72 h treatment, MTT
[13] = MTT cytotoxicity assay on MDCK cells; conditions: dog
MDCK cells = assay: MTT cytotoxicity assay on MDCK cells; conditions: 48 or 72 h treatment, MTT

`C[C@H](CCC(=O)O)[C@H]1CC[C@H]2[C@@H]3[C@H](O)C[C@@H]4C[C@H](O)CC[C@]4(C)[C@H]3CC[C@]12C` [CDCA, Chenodeoxycholic acid] showed an IC50 (H5N1 [1]) of 8.2 ± 1.2 µM, an IC50 (H9N2 [2]) of 11.5 ± 1.7 µM and an IC50 (PR8 (H1N1) [3]) of 7.7 ± 0.7 µM. It also gave an IC50 (H5N1 [4]) of 6.5 ± 0.5 µM, an IC50 (H9N2 [5]) of 5.5 ± 0.7 µM and an IC50 (PR8 (H1N1) [6]) of 7.2 ± 0.7 µM. The progeny virus titers [7] was “significantly inhibited”, the IC50 [7] was 5.5 to 11.5 µM and the “H5N1 replication (CPE, NP expression)” value (H5N1 virus) was “significantly inhibited”. For the same compound, the “anti-IAV activity, CPE (PR8 (H1N1))” value (PR8 (H1N1) [8]) was “reduced CPE”, the “anti-IAV activity, CPE (H9N2)” value (H9N2 virus) was “reduced CPE” and the “decrease of progeny virus yield, post-treatment” value (H5N1 [9]) was “more than 90%”. For the same compound, the “progeny virus yield and viral NP production, pretreatment” value (H5N1 [9]) was “did not reduce”, the “virus replication, cotreatment” value (H5N1 [9]) was “did not affect” and the “inhibition of virus replication (NP expression), added 4–6 and 6–8 hpi” value (H5N1 [10]; 60 μM) was “more significant inhibition”. For the same compound, the “early NP localization events (cytosol to nucleus translocation)” value [11] was “did not affect”, the “nuclear export of vRNP complexes” value [11] was “inhibited” and the CC50 [12] was 372 ± 41.2 µM. The “concentrations with no obvious cytotoxicity” value (A549 cells) was no more than 125 µM, the CC50 [13] was 121 ± 9.7 µM and the “concentrations with no obvious cytotoxicity” value (MDCK cells) was no more than 62.5 µM.
For `C[C@H](CCC(=O)O)[C@H]1CC[C@H]2[C@@H]3C[C@H](O)[C@@H]4C[C@H](O)CC[C@]4(C)[C@H]3CC[C@]12C` [HDCA, hyodeoxycholic acid], the IC50 (H5N1 [1]) was 60 ± 5.5 µM, the IC50 (H9N2 [2]) was 53 ± 6.5 µM and the IC50 (PR8 (H1N1) [3]) was 73.7 ± 6.7 µM. The IC50 (H5N1 [4]) was 41.2 ± 3.5 µM, the IC50 (H9N2 [5]) was 31 ± 2.2 µM and the IC50 (PR8 (H1N1) [6]) was 43.5 ± 2.7 µM. The IC50 [7] was 31 to 73.7 µM, the CC50 [12] was 486 ± 55 µM and the CC50 [13] was 414 ± 33.7 µM.
With `CCC(=C/[C@H](C)C/C=C/C(C)=C/[C@@H](C)C(=O)[C@@H](C)[C@H](O)[C@@H](C)C/C(C)=C/C(=O)O)/C=C/[C@@H]1OC(=O)C=C[C@@H]1C` [Leptomycin B (LMB), Leptomycin B] the “nuclear export of vRNP complexes” value [11] was “efficiently blocked”.
For `C[C@H](CCC(=O)O)[C@H]1CC[C@H]2[C@@H]3[C@@H](O)C[C@@H]4C[C@H](O)CC[C@]4(C)[C@H]3CC[C@]12C` [UDCA, ursodeoxycholic acid], the IC50 (H5N1 [1]) was 34.2 ± 3.7 µM, the IC50 (H9N2 [2]) was 58.7 ± 4.5 µM and the IC50 (PR8 (H1N1) [3]) was 43 ± 4.5 µM. For the same compound, the IC50 (H5N1 [4]) was 47.2 ± 3.2 µM, the IC50 (H9N2 [5]) was 36.7 ± 3.5 µM and the IC50 (PR8 (H1N1) [6]) was 56.2 ± 5 µM. The IC50 [7] was 31 to 73.7 µM, the CC50 [12] was 815 ± 49.2 µM and the CC50 [13] was 596 ± 53 µM.
In the case of `NC(=O)c1ncn([C@@H]2O[C@H](CO)[C@@H](O)[C@H]2O)n1` [ribavirin, Ribavirin hydrochloride], the “reduction of progeny virus production relative to 60 μM CDCA” value ([7]; 90 μM) is reported as “slightly more potent”, the “inhibition of H5N1 infection (CPE, NP expression)” value (H5N1 virus; 90 μM) is reported as “significant inhibition” and the “IAV inhibition (NP expression), added 6–8 hpi” value (H5N1 [10]) is reported as “no inhibition”. The “IAV inhibition (NP expression), added before 6 hpi” value (H5N1 [10]) was “much better IAV inhibition” and the “nuclear export of vRNP complexes” value [11] was “did not block”.
